According to ChEMBL document CHEMBL5528088, “Design and Synthesis of Cyclolipopeptide Mimics of Dysoxylactam A and Evaluation of the Reversing Potencies against P-Glycoprotein-Mediated Multidrug Resistance” (J Med Chem, 2024):
Where a name gives a salt, the structure may show the parent alone. Active and inactive are the calls of the source. The calls are words filed in the database; no cut-off is given here.

How the values were obtained:
KBv200 [1] = test: Cytotoxicity against human KBv200 cells at 10 uM incubated for 72 hrs by SRB assay relative to control; assay type: functional
KBv200 [2] = test: Inhibition of cell proliferation in human KBv200 cells assessed as inhibition of VNR at 10 uM incubated for 72 hrs in presence of VNR by SRB assay relative to control; assay type: functional
KBv200 [3] = test: Reversal fold, ratio of VNR IC50 to VNR IC50 in presence of test compound for human KBv200 cells incubated for 72 hrs by SRB assay; assay type: functional
KBv200 [4] = test: Inhibition of Rho-123 uptake in human KBv200 cells at 10 uM incubated for 10 mins by flow cytometry; assay type: functional, cell-based
KBv200 [5] = test: Inhibition of ADR uptake in human KBv200 cells at 10 uM incubated for 10 mins by flow cytometry; assay type: functional, cell-based
KBv200 [6] = test: Inhibition of calcein AM uptake in human KBv200 cells at 10 uM incubated for 10 mins by flow cytometry; assay type: functional, cell-based
NCI/ADR-RES = test: Reversal effect on P-gp-mediated multidrug resistance in human NCI/ADR-RES cells assessed as inhibition of cell proliferation incubated for 72 hrs by SRB assay; assay type: functional, cell-based
KBv200 [7] = test: Reversal effect on P-gp-mediated multidrug resistance in human KBv200 cells assessed as inhibition of cell proliferation incubated for 72 hrs by SRB assay; assay type: functional, cell-based; conditions: KBv200, 72 h

Structure (SMILES) | Activity (KBv200 [1]) | inhibition at 10 µM (KBv200 [2]) | Ratio IC50 (KBv200 [3]) | other results
CC[C@H](C)[C@@H]1NC(=O)[C@H](C(C)C)NC(=O)CCCCCCCC(=O)Nc2cc(F)cc(c2)COC1=O | 4.6% | 90.7% | 19.3 | –
CC(C)[C@H]1NC(=O)CCCCCCCCCCCC(=O)N[C@H](Cc2ccccc2)COC1=O | 15.8% | 91.5% | 114.5 | –
CC[C@H](C)[C@@H]1NC(=O)[C@H](C(C)C)NC(=O)CCCCCCCCC(=O)Nc2cccc(c2)COC1=O | 10.9% | 77.6% | 7.3 | –
CC(C)[C@@H]1NC(=O)CCCCCCCC(=O)N[C@@H](Cc2ccccc2)COC(=O)Cc2cccc(c2)NC1=O | 0% | 81.6% | 6.5 | –
COc1cc2c(cc1OC)CN(CCc1ccc(NC(=O)c3cc(OC)c(OC)cc3NC(=O)c3cnc4ccccc4c3)cc1)CC2 | – | – | – | inhibition (KBv200 [4]): Active; inhibition (KBv200 [5]): Active; inhibition (KBv200 [6]): Active
CC(C)[C@@H]1NC(=O)CCCCCCCC(=O)N[C@@H](Cc2ccccc2)COC(=O)[C@H](Cc2ccccc2)NC1=O | 0% | 88.9% | 2.7 | –
CC(C)[C@@H]1NC(=O)CCCCCCCCCC(=O)N[C@@H](Cc2ccccc2)COC1=O | 1.8% | 93.4% | 55.1 | –
COc1cccc2c1C(=O)c1c(O)c3c(c(O)c1C2=O)C[C@@](O)(C(=O)CO)C[C@@H]3O[C@H]1C[C@H](N)[C@H](O)[C@H](C)O1 [DOXORUBICIN HYDROCHLORIDE] | – | – | – | IC50 (NCI/ADR-RES): 26 µM; IC50 (KBv200 [7]): 0.373 µM
CC[C@H](C)[C@@H]1NC(=O)[C@H](C(C)C)NC(=O)CCCCCCCCC(=O)N[C@@H](Cc2ccccc2)COC1=O | 8.6% | 89.7% | 22.2 | –
CC[C@H](C)[C@@H]1NC(=O)[C@H](C(C)C)NC(=O)CCCCCCCC(=O)NCC(F)(F)COC1=O | 10.3% | 73.4% | 2.3 | –
CC(C)[C@@H]1NC(=O)CCCCCCCC(=O)N[C@@H](Cc2ccccc2)COC1=O | 0% | 80.6% | 26.1 | –
CC(=O)O[C@H]1C(=O)[C@@]2(C)[C@H]([C@H](OC(=O)c3ccccc3)[C@]3(O)C[C@H](OC(=O)[C@H](O)[C@@H](NC(=O)c4ccccc4)c4ccccc4)C(C)=C1C3(C)C)[C@]1(OC(C)=O)CO[C@@H]1C[C@@H]2O [PACLITAXEL] | – | – | – | IC50 (KBv200 [7]): 0.238 µM
CC[C@H](C)[C@@H]1NC(=O)[C@H](C(C)C)NC(=O)CCCCCCCC(=O)N[C@@H](C(C)C)COC1=O | 18.6% | 63.6% | 1.9 | –
CC(C)[C@@H]1NC(=O)CCCCCCCCCCCCC(=O)N[C@@H](Cc2ccccc2)COC1=O | 4.4% | 97.3% | 99.2 | –
CC(C)[C@H]1NC(=O)CCCCCCCCCCCC(=O)N[C@@H](Cc2ccccc2)COC1=O | 16.7% | 68.3% | 57.2 | –
CC(C)[C@@H]1NC(=O)CCCCCCCC(=O)N[C@@H](Cc2ccccc2)COC(=O)[C@H](C(C)C)NC1=O | 15.8% | 91.1% | 7.9 | –
CC[C@H](C)[C@@H]1NC(=O)[C@H](C(C)C)NC(=O)CCCCCCCC(=O)N[C@@H](Cc2ccccc2)COC1=O | 21.8% | 91.3% | 20.8 | –
CC[C@H](C)[C@@H]1NC(=O)[C@H](C(C)C)NC(=O)CCCCCCCC(=O)Nc2ccccc2COC1=O | 19.8% | 90.9% | 7.3 | –
CC[C@H](C)[C@@H]1NC(=O)[C@H](C(C)C)NC(=O)CCCCCCCC(=O)N[C@@H]2CC[C@H](C2)OC1=O | 20.5% | 72.2% | 1.4 | –
COc1ccc(CCN(C)CCCC(C#N)(c2ccc(OC)c(OC)c2)C(C)C)cc1OC (centres undefined) [VERAPAMIL] | 5% | 97.5% | 59.5 | inhibition (KBv200 [4]): Active; inhibition (KBv200 [5]): inactive; inhibition (KBv200 [6]): inactive
CC[C@H](C)[C@@H]1NC(=O)[C@H](C(C)C)NC(=O)CCCCCCCC(=O)NCc2cccc(c2)OC1=O | – | 6.4% | – | –
CC[C@H](C)[C@@H]1NC(=O)[C@H](C(C)C)NC(=O)CCCCCCCC(=O)Nc2cccc(c2)COC1=O | 31% | 92.3% | 26.8 | –
CC(C)[C@@H]1NC(=O)CCCCCCCCCCC(=O)N[C@@H](Cc2ccccc2)COC1=O | 5% | 97.6% | 85 | –
CC(C)[C@@H]1NC(=O)CCCCCCCC(=O)N[C@@H](c2ccccc2)COC1=O | – | 50.2% | – | –
CC(C)[C@@H]1NC(=O)CCCCCCCC(=O)NCCCCOC1=O | – | 15.7% | – | –
CC(C)[C@@H]1NC(=O)CCCCCCCC(=O)N[C@@H](C(C)C)COC1=O | – | 34.4% | – | –
CC(C)[C@@H]1NC(=O)CCCCCCCCCCCC(=O)N[C@H](Cc2ccccc2)COC1=O | 17% | 75.4% | 51.3 | –
CC[C@H](C)[C@@H]1NC(=O)[C@H](C(C)C)NC(=O)CCCCCCC(=O)Nc2cccc(c2)COC1=O | 4.4% | 83.5% | 10.2 | –
CC(C)[C@@H]1NC(=O)CCCCCCCCC(=O)N[C@@H](Cc2ccccc2)COC1=O | 2.2% | 85.4% | 31.7 | –
